Experimental data as given in patent US20130051651A1, “QUANTITATIVE IMAGE ANALYSIS FOR WOUND HEALING ASSAY” (PURDUE RESEARCH FOUNDATION, priority 2010, published 2013).

Tested on: MCF7 cells
Experiment: wound healing assay analysed with the quantitative image analysis algorithm
Format: cell-based
Excerpt: The wound healing assay, or “scratch” assay, is a traditional method used to study cell proliferation and migration. […] The cultures are then imaged over time using bright field or fluorescence microscopy to monitor the growth and migration of cells into the wound as it is healing.
Illustrative embodiments of the quantitative image analysis algorithm 100 have been tested multiple times and have provided robust and dependable wound healing assay analysis. By way of example, the […] 102 of several wound healing assays were measured at 24 hour time points (up to 96 hours). […] In this experiment, the algorithm took 90 minutes to process five time points for each wound healing assay in a 96 well plate (i.e., a total of 480 bright point images 102 being analyzed). […]
Furthermore, the data produced by the quantitative image analysis algorithm 100 matches traditional wound healing assay data. […]

Substance: neuregulin 2β
- percentage of wound healing using the wound area calculated by the algorithm (MCF7 cells treated with varying doses, different time points, dose response 48 hours after wound creation (FIGS. 3A, 3B)): dose-dependent increase in healing
- healing curve (speed of wound healing) (MCF7 cells, 4 different doses, treated versus untreated cells over time (FIG. 3A)): treated cells healed faster
